Legend:
[1] = system: serotonin; assay: Test 74 - Antiserotonin (in vitro), isolated ileal segments; type: cell-based, guinea pig; conditions: Cavia porcellus, contractile response to serotonin (1 mcg/ml); for inhibition at 1 µg/mL: Dose 1 γ/ml
From the text: Test 74 - Antiserotonin (in vitro):

[2] = system: skin taken from a "nude" mouse; assay: skin permeability test in vitro, skin diffusion cell apparatus, passage of naproxen-Na; conditions: naproxen-Na passage with facilitating substance at 0.5%, second set
Experimental: (§1) This study was carried out by "in vitro" tests using a skin diffusion cell apparatus consisting of two glass segments separated by a layer of skin taken from a "nude" mouse, genetically without hair. Suspensions of the substance to be tested are deposited on the stratum corneum of the skin. The dermic layer dips into a buffer solution from which withdrawals are made at intervals to determine the quantity of substance which has passed through the epidermis.
(§2) 1-dodecylazacycloheptan-2-one (azone) is used as reference standard.
(§3) Suspensions at the required concentrations (0.5 and 1% w/v) are then prepared by ultrasonic treatment three times for 30 seconds in an ice bath with a titanium-tipped ultrasonic generator. The pHs of the 1 % suspensions in 0.1 M pH 7.0 phosphated buffer are as follows:
(§4) The volume of examined suspension applied externally to the skin is 1 ml. The volume of buffer solution in the cell lower chamber is 10 ml. After each withdrawal of 1 ml of solution from the lower chamber, the volume was made up to 10 ml by adding buffer.

[3] = system: skin taken from a "nude" mouse
Experimental: as §1, §2, §3, §4

[4] = system: histamine; assay: Test 73 - Antihistaminic (in vitro), isolated ileal segments; type: cell-based, guinea pig; conditions: Cavia porcellus, contractile response to histamine (0.5 mcg/ml)
From the text: Test 73 - Antihistaminic (in vitro):
Inhibition of submaximal contractile responses of isolated guinea pig ileal segments, bathed in physiological salt solution, to histamine (0.5 mcg/ml) by more than 80 percent (>80) indicates activity.

[5] = system: LTD4; assay: Test 37 - LTD4 antagonist (in vitro), isolated ileal segments; type: cell-based, guinea pig; conditions: Cavia porcellus, contractile response to LTD4 (10 ng/ml)
From the text: Test 37 - LTD4 antagonist (in vitro):

`CN1CCC(=C2c3ccccc3C=Cc3ccccc32)CC1` [Cyproheptadine, reference compound] showed an inhibition at 1 µg/mL [1] of 85%.

In the case of `CCCCCCCCCCCCN1CC[S+]([O-])CC1` [Example 2, 4-dodecylthiomorpholine-1-oxide], the “F.U.a. 355.5 nm” value ([2]; 3.0 hours) is reported as 0.143 F.U.a, the nmoles passed ([2]; 3.0 hours) is reported as 366.0 nmol and the “F.U.a. 355.5 nm” value ([2]; 5.0 hours) is reported as 0.426 F.U.a. For the same compound, the nmoles passed ([2]; 5.0 hours) was 1093.0 nmol, the “F.U.a. 355.5 nm” value ([2]; 7.0 hours) was 0.755 F.U.a and the nmoles passed ([2]; 7.0 hours) was 1968.0 nmol. For the same compound, the “F.U.a. 355.5 nm” value ([2]; […]) was 0.033 F.U.a and the nmoles passed ([2]; […]) was 82.5 nmol.

In the case of `CCCCCCCCCCCCN1CCSCC1` [Example 1, 4-dodecylthiomorpholine], the “results compared with the compound of Example 3” value [3] is reported as “practically equal results”.

With `CCCCCCCCCC(=O)N1CCSCC1` [Example 5, 4-decanoylthiomorpholide] the inhibition at 0.5 µg/mL ([1]; Dose 0.5 γ/ml) was 68%, the inhibition at 1 µg/mL [1] was 100% and the inhibition at 2.5 µg/mL ([1]; Dose 2.5 γ/ml) was 100%. It also gave an inhibition at 10 µg/mL ([1]; Dose 10 γ/ml) of 100%, an inhibition at 1 µg/mL ([4]; Dose 1 γ/ml) of 18% and an inhibition at 2.5 µg/mL ([4]; Dose 2.5 γ/ml) of 82%. It also gave an inhibition at 10 µg/mL ([4]; Dose 10 γ/ml) of 100%, an inhibition at 4 µg/mL ([5]; Dose 4 γ/ml) of 28% and an inhibition at 8 µg/mL ([5]; Dose 8 γ/ml) of 75%.

From patent publication EP0314008A2, “N-substituted aliphatic heterocyclic compounds able to facilitate the passage of active substances through physiological barriers” (priority 1987, dated 1989)
